Results reported in patent US20250034182A1, “PHOSPHOLIPID COMPOUNDS AND METHODS OF MAKING AND USING THE SAME” (priority 2021, published 2025).

Key:
Type in all cases: cell-based
[1] = system: dengue virus type 2 in Huh7 hepatoblastoma cells; assay: Dengue Virus-2 Huh-7 EC50 (Example W); conditions: MOI of 0.07, CPE, neutral red dye, read-out: Dengue Virus-2 Huh-7 EC50 (nM) (per Ex. W)
Method: Huh7 hepatoblastoma cells were seeded onto 96-well plates and incubated at 37° C. with 5% CO2 overnight. The plates were seeded at a cell concentration that will yield >70% confluent monolayers in each well after overnight incubation. Eight 3-fold serial dilutions of compounds were diluted in test media (MEM supplemented with 2% FBS and 50 μg/mL gentamicin). The highest test compound concentration was 50 μg/mL. 100 μL of each concentration was added to 5 test wells on the 96-well plate. Of these 5 test wells, 3 wells of each dilution were infected with dengue virus type 2, diluted in test media (approximately 2000 CCID50 per well for an MOI of 0.07). Test medium (100 μL) with no virus was added to 2 wells to represent the uninfected cytotoxicity controls. Six additional infected wells received 100 μL media alone as untreated virus controls. Further, 100 μL of media alone was added to 6 uninfected wells to serve as uninfected, untreated controls. Cultures were incubated at 37° C.+5% CO2 until >80% CPE is observed. After cytopathic effect (CPE) is observed microscopically, 0.011% neutral red dye was added for approximately 2 hours. The neutral red dye was removed and wells were rinsed once with PBS to remove residual, unincorporated dye. A 50:50 Sorensen citrate buffer/ethanol solution was added and incubated at room temperature for >30 minutes with agitation, followed by measurement of neutral red dye using a spectrophotometer at 540 nm. The resulting optical density measurement was converted to percent signal of the infected, untreated cell control normalizing to virus controls. EC50 and CC50 values were determined by linear regression analysis.

[2] = system: Respiratory syncytial virus recombinant with luciferase (RSV-Luc5) in HEp-2 cells; assay: HEp-2 RSV-Luc5 384-well assay (EC50 RSVFLUC Hep2-384, Example R); conditions: human respiratory syncytial virus, HEp-2, 72 h, read-out: RSV Hep-2 FLuc EC50 (nM) (per Ex. R)
Description: HEp-2 cell line was purchased from ATCC (Manassas, VA Cat #CCL-23) and maintained in Dulbecco's […] (DMEM) (Corning, New York, NY, Cat #15-018CM) supplemented with 10% fetal bovine serum (FBS) (Hyclone, Logan, UT, Cat #SH30071-03) and 1× Penicillin-Streptornycin-L-Glutamine (Corning, New York, NY, Cat #30-009-CI). Cells were passaged 2 times per week to maintain sub-confluent densities and were used for experiments at passage 5-20. Respiratory syncytial virus recombinant with luciferase (RSV-Luc5) direct pelleted virus (≥1×107 TCID50/ml) was purchased from Microbiologics (Saint Cloud, MN). Viral replication was determined in HEp-2 cells in the following manner.
Compounds are prepared in 384-well polypropylene plates (Greiner, Monroe, NC, Cat #784201) with 8 compounds per plate in grouped replicates of 4 at 10 serially diluted concentrations (1:3).
HEp-2 cells were suspended in DMEM (supplemented with 10% FBS and 1×Penicillin-Streptonycin-L-Glutimine) and 60 μL of 4,000 cells per well were seeded into 384-well plates (Greiner, Monroe, NC, Cat #781080) using Biotek MultiFlo dispenser. After overnight incubation at 37° C. and 5% CO2, 0.4 uL of three-fold serial dilutions of compound was added to each well using a Biomek FX pipette station. RSV-Luc5 viruses were diluted in DMEM (supplemented with 10% FBS and 1× Penicillin-Streptonycin-L-Glutainie) at an MOI=0.5. Virus suspension was added to each 384-well compound plate at 20 uL per well using a Biotek MultiFlo dispenser. The assay plates were incubated for 3 days at 37° C. and 5% CO2. At the end of incubation, One-Glo reagent (Promega, Madison, WI, Cat #E6120) was prepared. The assay plate and the reagent were equilibrated to room temperature for 30 minutes. 50 uL per well of medium was removed from assay plate and 40 uL per well of One-Glo reagent was added to each plate by Biomek FX. The plates were sat at room temp for 15 minutes. Viral replication was then assessed by measuring luminescence signal using and Envision plate reader. Remdesivir was used as positive control and DMSO was used as negative control. Values were normalized to the positive and negative controls (as 0% and 100% replication, respectively) and data was fitted using non-linear regression analysis by Gilead's dose response tool. The EC50 value for each compound was then determined as the concentration reducing the viral replication by 50%.

[3] = HCV Replicon 1B CC50, calcein AM (Example Q); conditions: HCV replicon cells (1B), calcein AM fluorescence, read-out: HCV Replicon 1B CC50 (nM) (per Ex. Q)
Method: Compounds were serially diluted in ten steps of 1:3 dilutions in 384-well plates. All serial dilutions were performed in four replicates per compound within the same 384-well plate. An HCV protease inhibitor ITMN-191 at […] was added as a control of 100% inhibition of HCV replication while puromycin at 10 mM was included as a control of 100% cytotoxicity. To each well of a black polystyrene 384-well plate (Greiner Bio-one, Monroe, NC), 90 μL of cell culture medium (without Geneticin) containing 2000 suspended HCV replicon cells was added with a Biotek μFlow workstation. For compound transfer into cell culture plates, 0.4 μL of compound solution from the compound serial dilution plate was transferred to the cell culture plate on a Biomek FX workstation. The DMSO concentration in the final assay wells was 0.44%. The plates were incubated for 3 days at 37° C. with 5% CO2 and 85% humidity. The HCV replicon assay was a multiplex assay, able to assess both cytotoxicity and antireplicon activity from the same well. The CC50 assay was performed first. The media in the 384-well cell culture plate was aspirated, and the wells were washed four times with 100 μL of PBS each, using a Biotek ELX405 plate washer. A volume of 50 μL of a solution containing 400 nM calcein AM (Anaspec, Fremont, CA) in 1×PBS was added to each well of the plate with a Biotek μFlow workstation. The plate was incubated for 30 min at room temperature before the fluorescence signal (excitation 490 nm, emission 520 nm) was measured with a Perkin-Elmer Envision plate reader. The EC50 assay was performed in the same wells as the CC50 assay. The calcein-PBS solution in the 384-well cell culture plate was aspirated with a Biotek ELX405 plate washer. A volume of 20 μL of Dual-Glo luciferase buffer (Promega, Madison, WI) was added to each well of the plate with a Biotek μFlow Workstation. The plate was incubated for 10 min at room temperature. A volume of 20 μL of a solution containing a 1:100 mixture of Dual-Glo Stop & Glo substrate (Promega, Madison, WI) and Dual-Glo Stop & Glo buffer (Promega, Madison, WI) was added to each well of the plate with a Biotek μFlow Workstation. The plate was then incubated at room temperature for 10 min before the luminescence signal was measured with a Perkin-Elmer Envision Plate Reader.

| SMILES | EC50 [1] [nM] | EC50 [2] [nM] | CC50 at 3 days [3] [nM] |
| --- | --- | --- | --- |
| CCCCCCCCCCCCCCCCCCOC[C@H](COP(=O)(O)OC[C@@]1(C#N)O[C@@H](c2ccc3c(N)ncnn23)[C@H](O)[C@@H]1O)OCc1ccc(C#N)c(-n2cncn2)c1 [Compound 16, ((2R,3S,4R,5S)-5-(4-aminopyrrolo[2,1-f][1,2,4]triazin-7-yl)-2-cyano-3,4-dihydroxytetrahydrofuran-2-yl)methyl ((R)-2-((4-cyano-3-(1H-1,2,4-triazol-1-yl)benzyl)oxy)-3-(octadecyloxy)propyl) hydrogen phosphate] | 3900 |  |  |
| CCCCCCCCCCCCCCCCCCOC[C@H](COP(=O)(O)OC[C@@]1(C#N)O[C@@H](c2ccc3c(N)ncnn23)[C@H](O)[C@@H]1O)OCc1ccc(C#N)nc1 [Compound 19, ((2R,3S,4R,5S)-5-(4-aminopyrrolo[2,1-f][1,2,4]triazin-7-yl)-2-cyano-3,4-dihydroxytetrahydrofuran-2-yl)methyl ((R)-2-((6-cyanopyridin-3-yl)methoxy)-3-(octadecyloxy)propyl) hydrogen phosphate] | 6600 | 48 |  |
| CCCCCCCCCCCCCCCCCCOC[C@H](COP(=O)(O)OC[C@@]1(C#N)O[C@@H](c2ccc3c(N)ncnn23)[C@H](O)[C@@H]1O)Oc1ccc(C#N)c(OC(C)C)c1 [Compound 23, ((2R,3S,4R,5S)-5-(4-aminopyrrolo[2,1-f][1,2,4]triazin-7-yl)-2-cyano-3,4-dihydroxytetrahydrofuran-2-yl)methyl ((R)-2-(4-cyano-3-isopropoxyphenoxy)-3-(octadecyloxy)propyl) hydrogen phosphate] | 8600 |  |  |
| CCCCCCCCCCCCCCCCCCC[C@H](COP(=O)(O)OC[C@@]1(C#N)O[C@@H](c2ccc3c(N)ncnn23)[C@H](O)[C@@H]1O)OCc1cc(F)cc(C#N)c1 [Compound 25, ((2R,3S,4R,5S)-5-(4-aminopyrrolo[2,1-f][1,2,4]triazin-7-yl)-2-cyano-3,4-dihydroxytetrahydrofuran-2-yl)methyl ((R)-2-((3-cyano-5-fluorobenzyl)oxy)henicosyl) hydrogen phosphate] | 9200 | 291 |  |
| CCCCCCCCCCCCCCCCCCC[C@H](COP(=O)(O)OC[C@@]1(C#N)O[C@@H](c2ccc3c(N)ncnn23)[C@H](O)[C@@H]1O)OCc1ccc(C#N)c(OC(C)C)c1 [Compound 28, ((2R,3S,4R,5S)-5-(4-aminopyrrolo[2,1-f][1,2,4]triazin-7-yl)-2-cyano-3,4-dihydroxytetrahydrofuran-2-yl)methyl ((R)-2-((4-cyano-3-isopropoxybenzyl)oxy)henicosyl) hydrogen phosphate] | 9500 |  |  |
| CCCCCCCCCCCCCCCCCCCC[C@H](COP(=O)(O)OC[C@@]1(C#N)O[C@@H](c2ccc3c(N)ncnn23)[C@H](O)[C@@H]1O)OCc1cc(F)cc(C#N)c1 [Compound 34, ((2R,3S,4R)-5-(4-aminopyrrolo[2,1-f][1,2,4]triazin-7-yl)-2-cyano-3,4-dihydroxytetrahydrofuran-2-yl)methyl ((R)-2-((3-cyano-5-fluorobenzyl)oxy)docosyl) hydrogen phosphate] | 15000 |  |  |
| CCCCCCCCCCCCCCCCCCC[C@H](COP(=O)(O)OC[C@@]1(C#N)O[C@@H](c2ccc3c(N)ncnn23)[C@H](O)[C@@H]1O)Oc1ccc(C#N)c(OC(C)C)c1 [Compound 38, ((2R,3S,4R,5S)-5-(4-aminopyrrolo[2,1-f][1,2,4]triazin-7-yl)-2-cyano-3,4-dihydroxytetrahydrofuran-2-yl)methyl ((R)-2-(4-cyano-3-isopropoxyphenoxy)henicosyl) hydrogen phosphate] | 2900 |  |  |
| CCCCCCCCCCCCCCCCCCC[C@H](COP(=O)(O)OC[C@@]1(C#N)O[C@@H](c2ccc3c(N)ncnn23)[C@H](O)[C@@H]1O)Oc1cc(OC)c(C#N)c(OC)c1 [Compound 39, ((2R,3S,4R,5S)-5-(4-aminopyrrolo[2,1-f][1,2,4]triazin-7-yl)-2-cyano-3,4-dihydroxytetrahydrofuran-2-yl)methyl ((R)-2-(4-cyano-3,5-dimethoxyphenoxy)henicosyl) hydrogen phosphate] | 9100 |  |  |
| CCCCCCCCCCCCCCCCCCOCC(COc1cc(F)cc(C#N)c1)COP(=O)(O)OC[C@@]1(C#N)O[C@@H](c2ccc3c(N)ncnn23)[C@H](O)[C@@H]1O (stereo partly drawn) [Compound 43, ((2R,3S,4R,5S)-5-(4-aminopyrrolo[2,1-f][1,2,4]triazin-7-yl)-2-cyano-3,4-dihydroxytetrahydrofuran-2-yl)methyl (3-(3-cyano-5-fluorophenoxy)-2-((octadecyloxy)methyl)propyl) hydrogen phosphate] | 9700 |  |  |
| CCCCCCCCCCCCCCOC[C@H](COP(=O)(O)OC[C@@]1(C#N)O[C@@H](c2ccc3c(N)ncnn23)[C@H](O)[C@@H]1O)OCc1ccc(C#N)cc1F [Compound 75, ((2R,3S,4R,5S)-5-(4-aminopyrrolo[2,1-f][1,2,4]triazin-7-yl)-2-cyano-3,4-dihydroxytetrahydrofuran-2-yl)methyl ((R)-2-((4-cyano-2-fluorobenzyl)oxy)-3-(tetradecyloxy)propyl) hydrogen phosphate] | 23000 | 385 |  |
| CCCCCCCCCCCCCCCC[C@H](COP(=O)(O)OC[C@@]1(C#N)O[C@@H](c2ccc3c(N)ncnn23)[C@H](O)[C@@H]1O)OCc1cc(F)cc(C#N)c1 [Compound 78, ((2R,3S,4R,5S)-5-(4-aminopyrrolo[2,1-f][1,2,4]triazin-7-yl)-2-cyano-3,4-dihydroxytetrahydrofuran-2-yl)methyl ((R)-2-((3-cyano-5-fluorobenzyl)oxy)octadecyl) hydrogen phosphate] |  |  | > 44400 |
